Each structure is given as a SMILES string. Bounds are passed on as bounds.

The experiment concerns the target T1, Recombinant human HSD17B13 enzyme (Homo sapiens, UniProt Q7Z5P4).
T1 sequence (Q7Z5P4 20-300): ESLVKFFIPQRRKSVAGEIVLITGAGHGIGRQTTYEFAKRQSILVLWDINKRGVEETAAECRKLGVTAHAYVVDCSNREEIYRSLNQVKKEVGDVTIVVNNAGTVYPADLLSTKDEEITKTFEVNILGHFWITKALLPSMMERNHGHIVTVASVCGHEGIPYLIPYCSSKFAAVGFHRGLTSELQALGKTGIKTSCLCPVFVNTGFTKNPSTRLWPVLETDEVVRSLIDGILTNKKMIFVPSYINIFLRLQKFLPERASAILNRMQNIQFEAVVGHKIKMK
As to the kind of experiment: HSD17b13 NAD(P)H-Glo biochemical assay. As to conditions: 50 μM estradiol, 1 mM NAD+, 37° C. for 3 hours; read-out: HSD17β13 IC50. On the procedure: Example B-1: HSD17b13 NAD (P) H-Glo Biochemical Assay
Recombinant human HSD17B13 enzyme. Substrate: estradiol (Sigma β-Estradiol E8875), 100 mM in DMSO. Cofactor: NAD+ Grade I free acid (Sigma 10127965001), 20 mM in H2O. Assay buffer final concentration: 20 mM Tris pH7.4 with 0.002% Tween-20 and 0.02% BSA. Assay performed in 384 well solid bottom plate (Corning 3570). Enzymatic activity detected by NAD (P) H-Glo™ Detection System (Promega G9062).
Inhibitor compounds were serially diluted in DMSO and then further diluted in assay buffer to a 10× concentration consisting of 1% DMSO.
HSD17b13 enzyme was diluted in 1× assay buffer to the desired enzyme concentration based on the specific activity of the enzyme lot. 20 μL of diluted enzyme was added to each well along with 2.5 μL of 10× inhibitor solution. Assay plate was incubated at RT for 20 minutes, and then 2.5 μL of a 10× substrate/cofactor mix was added to each well for a final concentration of 50 μM estradiol and 1 mM NAD+. Assay plate was incubated at 37° C. for 3 hours. NAD (P) H-Glo™ Detection System reagents were prepared according to manufacturer's specifications, and 25 μL was added to each well. After incubating for 1 hour at RT, luminescence was measured.
By IC50 is commonly meant the concentration that gives 50% inhibition. As to `Cc1nn(-c2cc(C(F)(F)F)c(F)c(O)c2F)c2cnc(N3CCOC(Cc4ccccc4)C3)cc12` (stereo not shown) [Compound 2.04, 3-(5-(2-Benzylmorpholino)-3-methyl-1H-pyrazolo[3,4-c]pyridin-1-yl)-2,6-difluoro-5-(trifluoromethyl)phenol], the IC50 was ≤ 100 nM.

As for `CC(C)CC1COCCN1c1ncc2c(-c3cc(C(F)(F)F)c(F)c(O)c3F)nn(C)c2n1` (stereo not shown) [Compound 5.35, 2,6-Difluoro-3-(6-(3-isobutylmorpholino)-1-methyl-1H-pyrazolo[3,4-d]pyrimidin-3-yl)-5-(trifluoromethyl)phenol], the half-maximal inhibitory concentration (IC50) is ≤ 100 nM. Then `Cn1nc(-c2cc(C(F)(F)F)c(F)c(O)c2F)c2cnc(N3CCN(C(N)=O)CC3CC3CC3)nc21` (stereo not shown) [Compound 11.28, 3-(Cyclopropylmethyl)-4-(3-(2,4-difluoro-3-hydroxy-5-(trifluoromethyl)phenyl)-1-methyl-1H-pyrazolo[3,4-d]pyrimidin-6-yl)piperazine-1-carboxamide], with ≤ 100 nM; and `Cc1nn(-c2cc(C(F)(F)F)c(F)c(O)c2F)c2cnc(N3CCN(S(C)(=O)=O)C[C@@H]3Cc3ccccc3)cc12` [Compound 2.03, (S)-3-(5-(2-Benzyl-4-(methylsulfonyl)piperazin-1-yl)-3-methyl-1H-pyrazolo[3,4-c]pyridin-1-yl)-2,6-difluoro-5-(trifluoromethyl)phenol], with 100 to 1000 nM; and `Cn1nc(-c2cc(C(F)(F)F)c(F)c(O)c2F)c2cnc(N3CCNC(=O)C3Cc3ccccc3)nc21` (stereo not shown) [Compound 5.13, 3-Benzyl-4-(3-(2,4-difluoro-3-hydroxy-5-(trifluoromethyl)phenyl)-1-methyl-1H-pyrazolo[3,4-d]pyrimidin-6-yl)piperazin-2-one], with ≤ 100 nM.

Take `Cn1nc(-c2cc(Cl)c(F)c(O)c2F)c2cnc(N3CCN(S(C)(=O)=O)C[C@H]3Cc3ccccc3)nc21` [Compound 11.12, (R)-3-(6-(2-Benzyl-4-(methylsulfonyl)piperazin-1-yl)-1-methyl-1H-pyrazolo[3,4-d]pyrimidin-3-yl)-5-chloro-2,6-difluorophenol]: the IC50 was ≤ 100 nM. Then `Cc1nn(-c2cc(C(F)(F)F)c(F)c(O)c2F)c2cnc(N3CCOCC3Cc3ccccc3)cc12` (stereo not shown) [Compound 2.01, 3-(5-(3-Benzylmorpholino)-3-methyl-1H-pyrazolo[3,4-c]pyridin-1-yl)-2,6-difluoro-5-(trifluoromethyl)phenol], with ≤ 100 nM; and `Cn1nc(-c2cc(C(F)(F)F)c(F)c(O)c2F)c2cnc(N3CCOC[C@H]3C(C)(C)O)nc21` [Compound 15.13, (S)-2,6-Difluoro-3-(6-(3-(2-hydroxypropan-2-yl)morpholino)-1-methyl-1H-pyrazolo[3,4-d]pyrimidin-3-yl)-5-(trifluoromethyl)phenol], with ≤ 100 nM; and `Cn1nc(-c2cc(C(F)(F)F)c(F)c(O)c2F)c2cnc(N3CCOCC3CC3CCC3)nc21` (stereo not shown) [Compound 5.10, 3-(6-(3-(Cyclobutylmethyl)morpholino)-1-methyl-1H-pyrazolo[3,4-d]pyrimidin-3-yl)-2,6-difluoro-5-(trifluoromethyl)phenol], with ≤ 100 nM.

On to `Cc1nn(-c2cc(C(F)(F)F)c(F)c(O)c2F)c2cnc(N3CCN(S(C)(=O)=O)C[C@H]3Cc3ccccc3)cc12` [Compound 2.02, (R)-3-(5-(2-Benzyl-4-(methylsulfonyl)piperazin-1-yl)-3-methyl-1H-pyrazolo[3,4-c]pyridin-1-yl)-2,6-difluoro-5-(trifluoromethyl)phenol], for which the IC50 is ≤ 100 nM. In the case of `Cn1nc(-c2cc(C(F)(F)F)c(F)c(O)c2F)c2cnc(N3CCO[C@@H](Cc4ccc(S(N)(=O)=O)cc4)C3)nc21` [Compound 12.08, (S)-4-((4-(3-(2,4-Difluoro-3-hydroxy-5-(trifluoromethyl)phenyl)-1-methyl-1H-pyrazolo[3,4-d]pyrimidin-6-yl)morpholin-2-y)methyl)benzenesulfonamide], the half-maximal inhibitory concentration (IC50) is ≤ 100 nM. `CN(C)C(=O)N1CCN(c2ncc3c(-c4cc(C(F)(F)F)c(F)c(O)c4F)nn(C)c3n2)C(CC2CC2)C1` (stereo not shown) [Compound 11.21, 3-(Cyclopropylmethyl)-4-(3-(2,4-difluoro-3-hydroxy-5-(trifluoromethyl)phenyl)-1-methyl-1H-pyrazolo[3,4-d]pyrimidin-6-yl)-N,N-dimethylpiperazine-1-carboxamide]: the IC50 is ≤ 100 nM.

As to `Cn1nc(-c2cc(C(F)(F)F)c(F)c(O)c2F)c2cnc(N3CCN(S(C)(=O)=O)CC3CC3CC3)nc21` (stereo not shown) [Compound 11.13, 3-(6-(2-(Cyclopropylmethyl)-4-(methylsulfonyl)piperazin-1-yl)-1-methyl-1H-pyrazolo[3,4-d]pyrimidin-3-yl)-2,6-difluoro-5-(trifluoromethyl)phenol], the IC50 was ≤ 100 nM.

With `Cn1nc(-c2cc(C(F)(F)F)c(F)c(O)c2F)c2cnc(N3CCOCC3Cc3ccccn3)nc21` (stereo not shown) [Compound 15.06, 2,6-Difluoro-3-(1-methyl-6-(3-(pyridin-2-ylmethyl)morpholino)-1H-pyrazolo[3,4-d]pyrimidin-3-yl)-5-(trifluoromethyl)phenol], the IC50 is ≤ 100 nM. Regarding `Cn1nc(-c2cc(C(F)(F)F)c(F)c(O)c2F)c2cnc(N3CCO[C@@H](Cc4ccc(C#N)cc4)C3)nc21` [Compound 12.02, (S)-4-((4-(3-(2,4-Difluoro-3-hydroxy-5-(trifluoromethyl)phenyl)-1-methyl-1H-pyrazolo[3,4-d]pyrimidin-6-yl)morpholin-2-yl)methyl)benoznitrile], the IC50 is ≤ 100 nM. As for `Cn1nc(-c2cc(F)c(Cl)c(O)c2F)c2cnc(N3CCN(S(C)(=O)=O)C[C@H]3Cc3ccccc3)nc21` [Compound 11.10, (R)-3-(6-(2-Benzyl-4-(methylsulfonyl)piperazin-1-yl)-1-methyl-1H-pyrazolo[3,4-d]pyrimidin-3-yl)-6-chloro-2,5-difluorophenol], the IC50 is ≤ 100 nM.

On to `Cn1nc(-c2cc(C(F)(F)F)c(F)c(O)c2F)c2cnc(N3CCOCC3CC3CCCCC3)nc21` (stereo not shown) [Compound 15.03, 3-(6-(3-(Cyclohexylmethyl)morpholino)-1-methyl-1H-pyrazolo[3,4-d]pyrimidin-3-yl)-2,6-difluoro-5-(trifluoromethyl)phenol], for which the half-maximal inhibitory concentration (IC50) is ≤ 100 nM.

For `Cc1c(F)cc(-c2nn(C)c3nc(N4CCN(S(C)(=O)=O)C[C@H]4Cc4ccccc4)ncc23)c(F)c1O` [Compound 11.20, (R)-3-(6-(2-Benzyl-4-(methylsulfonyl)piperazin-1-yl)-1-methyl-1H-pyrazolo[3,4-d]pyrimidin-3-yl)-2,5-difluoro-6-methylphenol], the IC50 was ≤ 100 nM. With `C#Cc1cc(-c2nn(C)c3nc(N4CCN(S(C)(=O)=O)C[C@H]4Cc4ccccc4)ncc23)c(F)c(O)c1F` [Compound 11.17, (R)-3-(6-(2-Benzyl-4-(methylsulfonyl)piperazin-1-yl)-1-methyl-1H-pyrazolo[3,4-d]pyrimidin-3-yl)-5-ethynyl-2,6-difluorophenol], the IC50 is ≤ 100 nM. In the case of `Cn1nc(-c2cc(C(F)(F)F)c(F)c(O)c2F)c2cnc(N3CCN(S(C)(=O)=O)CC3CC3CCCCC3)nc21` (stereo not shown) [Compound 15, 3-(6-(2-(Cyclohexylmethyl)-4-(methylsulfonyl)piperazin-1-yl)-1-methyl-1H-pyrazolo[3,4-d]pyrimidin-3-yl)-2,6-difluoro-5-(trifluoromethyl)phenol], the IC50 was ≤ 100 nM. On to `Cn1nc(-c2cc(C(F)(F)F)c(F)c(O)c2F)c2cnc(N3CCN(S(C)(=O)=O)C[C@@H]3CC3CCCCC3)nc21` (single isomer, unassigned) [Compound 15.01], for which the IC50 was ≤ 100 nM. `CN(c1ncc2c(-c3cc(C(F)(F)F)c(F)c(O)c3F)nn(C)c2n1)C1(Cc2ccccc2)CCOCC1` [Compound 11.07, 3-(6-((4-Benzyltetrahydro-2H-pyran-4-yl)(methyl)amino)-1-methyl-1H-pyrazolo[3,4-d]pyrimidin-3-yl)-2,6-difluoro-5-(trifluoromethyl)phenol]: the half-inhibitory concentration (IC50) was ≤ 100 nM. Regarding `Cn1nc(-c2cc(C(F)(F)F)c(F)c(O)c2F)c2cnc(N3CCN(S(C)(=O)=O)C[C@@H]3Cc3ccccc3)nc21` [Compound 5.06, (S)-3-(6-(2-Benzyl-4-(methylsulfonyl)piperazin-1-yl)-1-methyl-1H-pyrazolo[3,4-d]pyrimidin-3-yl)-2,6-difluoro-5-(trifluoromethyl)phenol], the IC50 was ≤ 100 nM.

On to `Cn1nc(-c2cc(C(F)(F)F)c(F)c(O)c2F)c2cnc(N3CCC[C@H]3Cc3ccccc3)nc21` [Compound 5.17, (S)-3-(6-(2-Benzylpyrrolidin-1-yl)-1-methyl-1H-pyrazolo[3,4-d]pyrimidin-3-yl)-2,6-difluoro-5-(trifluoromethyl)phenol], for which the IC50 is ≤ 100 nM.

Take `Cn1nc(-c2cc(C(F)(F)F)c(F)c(O)c2F)c2cnc(N3CCOC(Cc4ccccc4)C3)nc21` (stereo not shown) [Compound 5.02, 3-(6-(2-Benzylmorpholino)-1-methyl-1H-pyrazolo[3,4-d]pyrimidin-3-yl)-2,6-difluoro-5-(trifluoromethyl)phenol]: the IC50 is ≤ 100 nM.

These data come from patent US20240368127A1, “HSD17B13 INHIBITORS AND USES THEREOF” (FL2022-001, Inc., priority 2021, published 2024).
